The target of one assay is T1, NLRP3 inflammasome (Homo sapiens, UniProt Q96P20).
T1 construct: IL-1beta HTRF
The assay is described as follows: IL-1β TR-FRET assay (THP-1 cells differentiated to macrophages with IFN-γ, LPS primed, ATP activated; HTRF). The class given is cell-based. The following applies: THP-1 macrophages, 50 ng/mL LPS priming, compound 30 min, 20 mM ATP 2 hours. An outline of the steps: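 IL-1β release was read by HTRF after 16–24 h antibody incubation at room temperature, using supernatants from THP-1-derived macrophages (IFN-γ 25 ng/mL, LPS 50 ng/mL priming) given compound 30 min and then 20 mM ATP for 2 h. % inhibition versus concentration was fitted logistically for IC50.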

For another assay, the system named is NF-κB pathway. The assay can be described thus: TNF-α assay (THP-1 cells differentiated to macrophages with IFN-γ, NF-κB pathway activated with LPS; ELISA). The settings on record: Homo sapiens, THP-1, THP-1 macrophages, compound 30 min, 50 ng/mL LPS 3 hours. The class given is cell-based, Human. An outline of the steps: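 TNF-α release measured by ELISA after 3 h stimulation with 50 ng/mL LPS, following 30 min compound pretreatment (37 °C, no FBS). Cells were THP-1 macrophages primed with IFN-γ 25 ng/mL for 24 h. IC50 derived by logistic curve fit.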
On the technique in general: ELISA stands for enzyme-linked immunosorbent assay.

T1 sequence (Q96P20 whole entry): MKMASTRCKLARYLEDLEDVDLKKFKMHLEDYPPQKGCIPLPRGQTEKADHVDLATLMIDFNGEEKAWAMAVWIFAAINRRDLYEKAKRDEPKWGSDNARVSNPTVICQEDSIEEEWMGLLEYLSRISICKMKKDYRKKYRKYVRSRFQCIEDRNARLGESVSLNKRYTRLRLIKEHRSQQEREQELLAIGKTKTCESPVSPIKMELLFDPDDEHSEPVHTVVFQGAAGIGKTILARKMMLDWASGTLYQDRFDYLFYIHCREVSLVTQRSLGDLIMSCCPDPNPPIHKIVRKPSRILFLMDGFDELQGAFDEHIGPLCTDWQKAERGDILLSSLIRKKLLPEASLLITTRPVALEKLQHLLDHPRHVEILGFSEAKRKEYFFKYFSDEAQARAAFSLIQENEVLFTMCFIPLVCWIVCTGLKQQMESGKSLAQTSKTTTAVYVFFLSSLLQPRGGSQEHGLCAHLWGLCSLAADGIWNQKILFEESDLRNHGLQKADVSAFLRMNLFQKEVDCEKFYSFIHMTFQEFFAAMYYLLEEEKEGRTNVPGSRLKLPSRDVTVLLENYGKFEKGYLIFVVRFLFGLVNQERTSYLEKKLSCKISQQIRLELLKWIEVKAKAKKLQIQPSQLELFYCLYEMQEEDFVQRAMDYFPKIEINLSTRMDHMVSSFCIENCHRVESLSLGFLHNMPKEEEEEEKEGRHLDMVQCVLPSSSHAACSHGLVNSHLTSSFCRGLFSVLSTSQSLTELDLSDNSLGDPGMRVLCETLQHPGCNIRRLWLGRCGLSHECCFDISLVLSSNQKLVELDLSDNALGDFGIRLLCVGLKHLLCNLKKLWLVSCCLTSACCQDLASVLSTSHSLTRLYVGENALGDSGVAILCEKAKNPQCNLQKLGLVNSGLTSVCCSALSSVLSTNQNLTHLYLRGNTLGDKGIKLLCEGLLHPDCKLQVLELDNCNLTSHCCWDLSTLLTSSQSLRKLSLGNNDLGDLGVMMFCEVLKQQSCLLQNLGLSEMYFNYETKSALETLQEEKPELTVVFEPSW

The IC50 is the point on the concentration scale where inhibition reaches its midpoint. Low readings indicate greater potency, high ones weaker potency. For the molecule `CC(=O)N1CCC(Nc2nc3nn(-c4c(C)cc(C)cc4O)cc3s2)CC1` [Example 133, 1-(4-{[2-(2-hydroxy-4,6-dimethylphenyl)-2H-pyrazolo[3,4-d][1,3]thiazol-5-yl]amino}piperidin-1-yl)ethan-1-one], the IC50 is 880 nM against NLRP3 inflammasome and over 30000 nM in the assay on NF-κB pathway.

On to `COc1cc(C)c(-n2cc3sc(N[C@@H]4CN(C)C[C@H]4F)nc3n2)c(O)c1` [Example 134, 2-(5-{[(3R,4R)-4-fluoro-1-methylpyrrolidin-3-yl]amino}-2H-pyrazolo[3,4-d][1,3]thiazol-2-yl)-5-methoxy-3-methylphenol], for which the results for the concentration for half-maximal inhibition (IC50) against NLRP3 inflammasome and in the assay on NF-κB pathway were 1500 nM and over 10000 nM, respectively.

In the case of `COc1cc(C)c(-n2cc3sc(N[C@H]4CN(C)C[C@@H]4F)nc3n2)c(O)c1` [Example 135, 2-(5-{[(3S,4S)-4-fluoro-1-methylpyrrolidin-3-yl]amino}-2H-pyrazolo[3,4-d][1,3]thiazol-2-yl)-5-methoxy-3-methylphenol], the IC50 against NLRP3 inflammasome is 90 nM; in the assay with NF-κB pathway, over 10000 nM.

As to `Cc1cc(C)c(-n2cc3sc(N[C@H]4CCN(C)C(=O)C4)nc3n2)c(O)c1` [Example 136, (4S)-4-{[2-(2-hydroxy-4,6-dimethylphenyl)-2H-pyrazolo[3,4-d][1,3]thiazol-5-yl]amino}-1-methylpiperidin-2-one], the results for the 50% inhibitory concentration (IC50) on NLRP3 inflammasome and in the assay on NF-κB pathway were 3300 nM and over 30000 nM, respectively.

With `Cc1cc(C)c(-n2cc3sc(N[C@@H]4CCN(C)C(=O)C4)nc3n2)c(O)c1` [Example 137, (4R)-4-{[2-(2-hydroxy-4,6-dimethylphenyl)-2H-pyrazolo[3,4-d][1,3]thiazol-5-yl]amino}-1-methylpiperidin-2-one], the IC50 at NLRP3 inflammasome is 1100 nM; in the assay with NF-κB pathway, over 30000 nM.

Regarding `Cc1cc(C)c(-n2cc3sc(NCC4(F)CCC4)nc3n2)c(O)c1` [Example 138, 2-(5-{[(1-fluorocyclobutyl)methyl]amino}-2H-pyrazolo[3,4-d][1,3]thiazol-2-yl)-3,5-dimethylphenol], the IC50 on NLRP3 inflammasome is 600 nM; in the assay on NF-κB pathway, over 10000 nM.

Turning to `Cc1cc(C)c(-n2cc3sc(NCC(C)(F)F)nc3n2)c(O)c1` [Example 139, 2-{5-[(2,2-difluoropropyl)amino]-2H-pyrazolo[3,4-d][1,3]thiazol-2-yl}-3,5-dimethylphenol], the half-inhibitory concentration (IC50) against NLRP3 inflammasome is 280 nM; with NF-κB pathway, over 10000 nM.

With `Cc1cc(C)c(-n2cc3sc(NC(C)C(C)O)nc3n2)c(O)c1` (stereo not shown) [Example 140, 2-{5-[(3-hydroxybutan-2-yl)amino]-2H-pyrazolo[3,4-d] [1,3]thiazol-2-yl}-3,5-dimethylphenol], the IC50 against NLRP3 inflammasome is 400 nM; with NF-κB pathway it was over 30000 nM.

For `Cc1cc(O)c(-n2cc3sc(NC[C@@H](C)O)nc3n2)c(C2CC2(F)F)c1` (stereo partly drawn) [Example 141, 3-(2,2-difluorocyclopropyl)-2-(5-{[(2R)-2-hydroxypropyl]amino}-2H-pyrazolo[3,4-d][1,3]thiazol-2-yl)-5-methylphenol], the IC50 against NLRP3 inflammasome is 59 nM; in the assay with NF-κB pathway, over 30000 nM.

`Cc1cc(C)c(-n2cc3sc(N[C@H]4COC[C@H]4F)nc3n2)c(O)c1` [Example 144, 2-(5-{[(3R,4R)-4-fluorooxolan-3-yl]amino}-2H-pyrazolo [3,4-d][1,3]thiazol-2-yl)-3,5-dimethylphenol or 2-(5-{[(3S,4S)-4-fluorooxolan-3-yl]amino}-2H-pyrazolo[3,4-d][1,3]thiazol-2-yl)-3,5-dimethylphenol (tR1)]: the concentration for half-maximal inhibition (IC50) against NLRP3 inflammasome was 850 nM; in the assay on NF-κB pathway it was over 30000 nM.

Take `Cc1cc(C)c(-n2cc3sc(NCC(F)F)nc3n2)c(O)c1` [Example 146, 2-{5-[(2,2-difluoroethyl)amino]-2H-pyrazolo[3,4-d][1,3]thiazol-2-yl}-3,5-dimethylphenol]: the IC50 against NLRP3 inflammasome was 380 nM; with NF-κB pathway, over 30000 nM.

In the case of `Cc1cc(C)c(-n2cc3sc(NC4(C(F)F)CC4)nc3n2)c(O)c1` [Example 147, 2-(5-{[1-(difluoromethyl)cyclopropyl]amino}-2H-pyrazolo[3,4-d][1,3]thiazol-2-yl)-3,5-dimethylphenol], the figures for the half-maximal inhibitory concentration (IC50) against NLRP3 inflammasome and in the assay with NF-κB pathway were 840 nM and over 10000 nM, respectively.

In the case of `Cc1cc(O)c(-n2cc3sc(NCC(C)(C)O)nc3n2)c(C2CC2(F)F)c1` (stereo not shown) [Example 148], the IC50 was 130 nM against NLRP3 inflammasome and over 30000 nM in the assay with NF-κB pathway.

Consider `Cc1cc(O)c(-n2cc3sc(NC45CCC(O)(CC4)C5)nc3n2)c(C2CC2(F)F)c1` (stereo not shown) [Example 149, 4-({2-[2-(2,2-difluorocyclopropyl)-6-hydroxy-4-methylphenyl]-2H-pyrazolo[3,4-d][1,3]thiazol-5-yl}amino)bicyclo[2.2.1]heptan-1-ol], for which the IC50 was 66 nM against NLRP3 inflammasome and over 30000 nM with NF-κB pathway.

As for `CCc1cc(C)cc(O)c1-n1cc2sc(NC34CCC(O)(CC3)C4)nc2n1` [Example 150, 4-{[2-(2-ethyl-6-hydroxy-4-methylphenyl)-2H-pyrazolo[3,4-d][1,3]thiazol-5-yl]amino}bicyclo[2.2.1]heptan-1-ol], the IC50 is 120 nM on NLRP3 inflammasome and over 10000 nM in the assay with NF-κB pathway.

With `Cc1cc(C)c(-n2cc3sc(NC4C5CC6CC4CC(O)(C6)C5)nc3n2)c(O)c1` (stereo not shown) [Example 151, 4-{[2-(2-hydroxy-4,6-dimethylphenyl)-2H-pyrazolo[3,4-d][1,3]thiazol-5-yl]amino} adamantan-1-ol], the values for the IC50 against NLRP3 inflammasome and in the assay on NF-κB pathway were 6800 nM and over 10000 nM, respectively.

As to `Cc1cc(C)c(-n2cc3sc(NCC(F)(F)CO)nc3n2)c(O)c1` [Example 152, 2-{5-[(2,2-difluoro-3-hydroxypropyl)amino]-2H-pyrazolo[3,4-d][1,3]thiazol-2-yl}-3,5-dimethylphenol], the values for the IC50 at NLRP3 inflammasome and in the assay on NF-κB pathway were 280 nM and over 30000 nM, respectively.

Take `Cc1cc(C)c(-n2cc3sc(N[C@@H]4CCN(C(=O)OC5CC5)C4)nc3n2)c(O)c1` [Example 153, cyclopropyl (3R)-3-{[2-(2-hydroxy-4,6-dimethylphenyl)-2H-pyrazolo[3,4-d][1,3]thiazol-5-yl]amino}pyrrolidine-1-carboxylate]: the IC50 on NLRP3 inflammasome was 270 nM; in the assay on NF-κB pathway it was over 30000 nM.

Regarding `Cc1cc(C)c(-n2cc3sc(N[C@H]4CCN(C(=O)OC5CC5)C4)nc3n2)c(O)c1` [Example 154, cyclopropyl (3S)-3-{[2-(2-hydroxy-4,6-dimethylphenyl)-2H-pyrazolo[3,4-d][1,3]thiazol-5-yl]amino}pyrrolidine-1-carboxylate], the values for the 50% inhibitory concentration (IC50) on NLRP3 inflammasome and in the assay on NF-κB pathway were 1900 nM and over 30000 nM, respectively.

Regarding `COC(=O)N1CC[C@@H](Nc2nc3nn(-c4c(C)cc(C)cc4O)cc3s2)C1` [Example 155, methyl (3R)-3-{[2-(2-hydroxy-4,6-dimethylphenyl)-2H-pyrazolo[3,4-d][1,3]thiazol-5-yl]amino}pyrrolidine-1-carboxylate], the half-maximal inhibitory concentration (IC50) is 340 nM against NLRP3 inflammasome and over 30000 nM in the assay with NF-κB pathway.

`COC(=O)N1CC[C@H](Nc2nc3nn(-c4c(C)cc(C)cc4O)cc3s2)C1` [Example 156, methyl (3S)-3-{[2-(2-hydroxy-4,6-dimethylphenyl)-2H-pyrazolo[3,4-d][1,3]thiazol-5-yl]amino}pyrrolidine-1-carboxylate]: the half-maximal inhibitory concentration (IC50) is 2000 nM against NLRP3 inflammasome and over 10000 nM in the assay with NF-κB pathway.

In the case of `Cc1cc(C)c(-n2cc3sc(N[C@@H]4CCOC4)nc3n2)c(O)c1` [Example 157, 3,5-dimethyl-2-(5-{[(3R)-oxolan-3-yl]amino}-2H-pyrazolo[3,4-d][1,3]thiazol-2-yl)phenol], the IC50 on NLRP3 inflammasome is 330 nM; in the assay with NF-κB pathway it was over 30000 nM.

For `Cc1cc(C)c(-n2cc3sc(N[C@H]4CCOC4)nc3n2)c(O)c1` [Example 158, 3,5-dimethyl-2-(5-{[(3S)-oxolan-3-yl]amino}-2H-pyrazolo[3,4-d][1,3]thiazol-2-yl)phenol], the IC50 against NLRP3 inflammasome was 660 nM; with NF-κB pathway, over 30000 nM.

As to `Cc1cc(C)c(-n2cc3sc(NC4COCC4O)nc3n2)c(O)c1` (stereo not shown) [Example 159, 4-{[2-(2-hydroxy-4,6-dimethylphenyl)-2H-pyrazolo[3,4-d][1,3]thiazol-5-yl]amino}oxolan-3-ol], the half-maximal inhibitory concentration (IC50) was 260 nM against NLRP3 inflammasome and over 30000 nM with NF-κB pathway.

As to `Cc1cc(C)c(-n2cc3sc(N[C@H]4CN(C)CC4(F)F)nc3n2)c(O)c1` [Example 160, 2-(5-{[(3S)-4,4-difluoro-1-methylpyrrolidin-3-yl]amino}-2H-pyrazolo[3,4-d][1,3]thiazol-2-yl)-3,5-dimethylphenol], the IC50 against NLRP3 inflammasome is 1300 nM; in the assay with NF-κB pathway, over 30000 nM.

Regarding `Cc1cc(C)c(-n2cc3sc(NCC4(O)COC4)nc3n2)c(O)c1` [Example 161, 3-({[2-(2-hydroxy-4,6-dimethylphenyl)-2H-pyrazolo [3,4-d][1,3]thiazol-5-yl]amino}methyl)oxetan-3-ol], the 50% inhibitory concentration (IC50) against NLRP3 inflammasome was 16000 nM; in the assay with NF-κB pathway, over 30000 nM.

In the case of `Cc1cc(C)c(-n2cc3sc(N[C@@H]4CCCC[C@H]4O)nc3n2)c(O)c1` [Example 162, 2-(5-{[(1R,2R)-2-hydroxycyclohexyl]amino}-2H-pyrazolo[3,4-d][1,3]thiazol-2-yl)-3,5-dimethyl-phenol], the IC50 on NLRP3 inflammasome was 450 nM; with NF-κB pathway it was over 30000 nM.

For `Cc1cc(C)c(-n2cc3sc(NCC(O)C(F)(F)F)nc3n2)c(O)c1` (stereo not shown) [Example 163, 3,5-dimethyl-2-{5-[(3,3,3-trifluoro-2-hydroxypropyl)amino]-2H-pyrazolo[3,4-d][1,3]thiazol-2-yl}phenol], the figures for the 50% inhibitory concentration (IC50) at NLRP3 inflammasome and in the assay on NF-κB pathway were 670 nM and over 30000 nM, respectively.

With `Cc1cc(C)c(-n2cc3sc(NCC(O)c4ccccn4)nc3n2)c(O)c1` (stereo not shown) [Example 164, 2-(5-{[2-hydroxy-2-(pyridin-2-yl)ethyl]amino}-2H-pyrazolo[3,4-d][1,3]thiazol-2-yl)-3,5-dimethylphenol], the IC50 at NLRP3 inflammasome was 1000 nM; in the assay on NF-κB pathway it was over 30000 nM.
